Measured values as given in US20050009776A1, “Method of treating atrial fibrillation or atrial flutter” (Aderis Pharmaceuticals, Inc., priority 2003, published 2005).

What was measured:
[1] = Example 2: safety (adverse events, blood pressure, clinical laboratory values); format: in vivo, human; conditions: for Diastolic BP Change from Baseline Post-treatment / Diastolic BP Change from Baseline Treatment / Systolic BP Change from Baseline Post-treatment / Systolic BP Change from Baseline Treatment: mean ± SD
Protocol: Each patient received 1 of 6 doses of DTI-0009 (0.25, 1.0, 2.5, 4.0, 10.0, or 25.0 μg/kg) diluted in normal saline or normal saline only (control). Study drug was administered as a 30-minute i.v. infusion at a rate of 1 mL/minute. Patients were enrolled in sequential dose groups, beginning with the lowest active dose group and continuing in increasing dose order; the final group received normal saline. The decision to proceed to the next highest dose group was based on the safety response in the previous dose group.
Electrophysiologic (EP), electrocardiogram (ECG), blood pressure measurements, and blood collection for clinical laboratory measurements were performed at baseline (−10 to 0 minutes), during treatment (between 20 and 30 minutes), and at 10 minutes post-treatment.
ECG measurements included PR interval, QRS complex duration, and QT interval. Efficacy was based on changes in EP and ECG parameters from baseline to the treatment period and to post treatment. Safety was based on the incidence of adverse events, blood pressure measurements, and clinical laboratory values.
The incidence of adverse events, blood pressure measurements, and clinical laboratory results were summarized by dose group. Adverse events were coded using the medical dictionary for regulatory activities (MedDRA version 3.0). Safety analyses included all patients who received any duration of study drug infusion.

[2] = test system: atrioventricular (AV) node; test: Example 3: Phase I dose escalation, effects on AV node function; format: in vivo, human
Protocol: This study for determining the effects of DTI-0009 on atrioventricular (AV) node function enrolled 63 patients (19 women and 44 men; mean age 54) who were scheduled for a procedure other than AV node or slow pathway ablation. All patients had no greater than a first degree AV block and AV node Wenckebach Cycle Length of less than 500 msec. […] The study was a Phase I, multi-center, open-label, sequential dose escalation using DTI-0009 (0.25 μg/kg, 1.0 μg/kg, 2.5 μg/kg, 4.0 μg/kg, 10.0 μg/kg, and 25.0 μg/kg) or normal saline. Electrophysiologic studies (EPS) were performed at baseline, during infusion (20-30 min) and 10 minutes after discontinuation of DTI-0009 administration.

SMILES: CCNC(=O)[C@H]1O[C@@H](n2cnc3c(NC4CCCC4)ncnc32)[C@H](O)[C@@H]1O [DTI-0009, N^6-cyclopentyl-5′-(N-ethyl)carboxamidoadenosine]
- Incidence of Adverse Events: General Disorders ([1]; 4.0 μg/kg (n = 10)): 0
- Incidence of Adverse Events: Groin pain/swelling ([1]; 4.0 μg/kg (n = 10)): 0
- Diastolic BP Change from Baseline Post-treatment ([1]; 4.0 μg/kg): 0.6 ± 10.5 mmHg
- Diastolic BP Change from Baseline Treatment ([1]; 4.0 μg/kg): 3.3 ± 8.4 mmHg
- Systolic BP Change from Baseline Post-treatment ([1]; 4.0 μg/kg): 5.2 ± 10.2 mmHg
- Systolic BP Change from Baseline Treatment ([1]; 4.0 μg/kg): 3.8 ± 8.4 mmHg
- Adverse Events Related to Study Drug: Cardiac Disorders (all) ([1]; 10.0 μg/kg (n = 12)): 6 (50%)
- Adverse Events Related to Study Drug: General Disorders (all) ([1]; 10.0 μg/kg (n = 12)): 1 (8%)
- Incidence of Adverse Events Related to Study Drug ([1]; 10.0 μg/kg (n = 12)): 7 (58%)
- Incidence of Adverse Events: Any Adverse Event ([1]; 10.0 μg/kg (n = 12)): 8 (67%)
- Incidence of Adverse Events: Atrial fibrillation ([1]; 10.0 μg/kg (n = 12)): 3 (25%)
- Incidence of Adverse Events: Atrial flutter ([1]; 10.0 μg/kg (n = 12)): 1 (8%)
- Incidence of Adverse Events: Atrial tachycardia ([1]; 10.0 μg/kg (n = 12)): 0
- Incidence of Adverse Events: Bradycardia ([1]; 10.0 μg/kg (n = 12)): 1 (8%)
- Incidence of Adverse Events: Cardiac Disorders ([1]; 10.0 μg/kg (n = 12)): 6 (50%)
- Incidence of Adverse Events: Chest pain/tightness ([1]; 10.0 μg/kg (n = 12)): 1 (8%)
- Incidence of Adverse Events: Conduction disorders ([1]; 10.0 μg/kg (n = 12)): 1 (8%)
- Incidence of Adverse Events: General Disorders ([1]; 10.0 μg/kg (n = 12)): 2 (17%)
- Incidence of Adverse Events: Groin pain/swelling ([1]; 10.0 μg/kg (n = 12)): 0
- patients with severe adverse events ([1]; 10.0 μg/kg group): 1 patient
- Diastolic BP Change from Baseline Post-treatment ([1]; 10.0 μg/kg): −7.2 ± 16.8 mmHg
- Diastolic BP Change from Baseline Treatment ([1]; 10.0 μg/kg): −3.2 ± 11.2 mmHg
- Systolic BP Change from Baseline Post-treatment ([1]; 10.0 μg/kg): −12.6 ± 20.4 mmHg
- Systolic BP Change from Baseline Treatment ([1]; 10.0 μg/kg): −3.2 ± 13.5 mmHg
- Adverse Events Related to Study Drug: Cardiac Disorders (all) ([1]; 25.0 μg/kg (n = 3)): 2 (66.7%)
- Adverse Events Related to Study Drug: General Disorders (all) ([1]; 25.0 μg/kg (n = 3)): 3 (100%)
- Incidence of Adverse Events Related to Study Drug ([1]; 25.0 μg/kg (n = 3)): 3 (100%)
- Incidence of Adverse Events: Any Adverse Event ([1]; 25.0 μg/kg (n = 3)): 3 (100%)
- Incidence of Adverse Events: Atrial fibrillation ([1]; 25.0 μg/kg (n = 3)): 1 (33%)
- Incidence of Adverse Events: Atrial flutter ([1]; 25.0 μg/kg (n = 3)): 0
- Incidence of Adverse Events: Atrial tachycardia ([1]; 25.0 μg/kg (n = 3)): 1 (33%)
- Incidence of Adverse Events: Bradycardia ([1]; 25.0 μg/kg (n = 3)): 1 (33%)
- Incidence of Adverse Events: Cardiac Disorders ([1]; 25.0 μg/kg (n = 3)): 2 (66.7%)
- Incidence of Adverse Events: Chest pain/tightness ([1]; 25.0 μg/kg (n = 3)): 3 (100%)
- Incidence of Adverse Events: Conduction disorders ([1]; 25.0 μg/kg (n = 3)): 0
- Incidence of Adverse Events: General Disorders ([1]; 25.0 μg/kg (n = 3)): 3 (100%)
- Incidence of Adverse Events: Groin pain/swelling ([1]; 25.0 μg/kg (n = 3)): 0
- patients with severe adverse events ([1]; 25.0 μg/kg group): 2 patients
- patients who did not complete study drug infusion due to adverse events ([1]; 25.0 μg/kg group, chest pain, severe chest pain, chest tightness and atrial fibrillation): Three patients
- Diastolic BP Change from Baseline Post-treatment ([1]; 25.0 μg/kg): 1.0 ± 8.0 mmHg
- Diastolic BP Change from Baseline Treatment ([1]; 25.0 μg/kg): 7.5 ± 2.1 mmHg
- Systolic BP Change from Baseline Post-treatment ([1]; 25.0 μg/kg): 6.7 ± 8.1 mmHg
- Systolic BP Change from Baseline Treatment ([1]; 25.0 μg/kg): 23.0 ± 2.8 mmHg
- changes in blood pressure or clinical laboratory values ([1]; any patient during the study): no clinically significant changes
- AERP Change from Baseline ([2]; 4.0 μg/kg (n = 9), ns): +10 msec (ns)
- AH Interval Change from Baseline ([2]; 4.0 μg/kg (n = 9), ns): +9 msec (ns)
- AVNERP Change from Baseline ([2]; 4.0 μg/kg (n = 9), ns): +73 msec (ns)
- Wenkebach Cycle Length Change from Baseline ([2]; 4.0 μg/kg (n = 9), ns): +60 msec (ns)
- HR at 250 msec pacing Change from Baseline ([2]; 4.0 μg/kg (n = 9), p = 0.008): −49 bpm
- AVNERP Change from Baseline ([2]; 10.0 μg/kg (n = 8), p = 0.001): +248 msec
- HR at 250 msec pacing Change from Baseline ([2]; 10.0 μg/kg (n = 8), p = 0.001): −51 bpm
- Wenkebach Cycle Length Change from Baseline ([2]; 10.0 μg/kg (n = 8), p = 0.001): +198 msec
- AH Interval Change from Baseline ([2]; 10.0 μg/kg (n = 8), p = 0.004): +24 msec
- AERP Change from Baseline ([2]; 10.0 μg/kg (n = 8), p = 0.035): -14 ms
- complete heart block ([2]; 10.0 μg/kg dose): occurred in one patient
- AERP Change from Baseline ([2]; 25.0 μg/kg (n = 2), ns): +10 msec (ns)
- AH Interval Change from Baseline ([2]; 25.0 μg/kg (n = 2), ns): +14 msec (ns)
- HR at 250 msec pacing Change from Baseline ([2]; 25.0 μg/kg (n = 2), p = 0.004): −45 bpm
- AVNERP Change from Baseline ([2]; 25.0 μg/kg (n = 2), p = 0.013): +185 msec
- Wenkebach Cycle Length Change from Baseline ([2]; 25.0 μg/kg (n = 2), p = 0.035): +140 msec
- transient, severe, non-ischemic chest pain reported as serious adverse events ([2]; 25.0 μg/kg, three patients dosed): two of these patients
- effects on AV node variables at low doses ([2]; doses up to 2.5 μg/kg): negligible effects
- tolerability ([2]; up to a dose of 10.0 μg/kg): well tolerated
